Experimental data: article PMC10936414 (mBio, 2024)
Like-named read-outs stand apart in the source and are kept apart here. Residues, ends and D or L forms follow the SMILES beside them. *: point of attachment. Cbz = O=C(OCc1ccccc1)*

Key:
VSV-SARS-CoV-2 [1] = test: organism not typed; assay type: cell-based
VSV [2] = test: microbe, parasite or virus in culture; assay type: cell-based
MA104 cells = conditions: treated 25 h, WST-8
VSV [3] = conditions: ref [12]; cited from earlier work
VSV-SARS-CoV-2 [4] = assay type: cell-based; conditions: MA104, MOI of 3, 24 hpi
SARS-CoV = conditions: ref [6]; cited from earlier work
SARS-CoV-2-mNeonGreen = SARS-CoV-2-mNeonGreen infection of Vero E6 cells; assay type: cell-based
VSV-SARS-CoV-2 [5] = test: organism not typed; assay type: cell-based; remark: listed apart in the source
SARS-CoV-2 = conditions: ref [4], [7]; cited from earlier work
in vitro = conditions: African green monkey
[6] = Vesicular stomatitis virus, MA104, read-out: EC50 against VSV
[7] = MA104, read-out: EC50 against VSV-SARS-CoV-2, MA104 cells, pre-treated 1 h, 24 h infection, MOI = 1, GFP signal
[8] = MA104, read-out: EC50 against VSV-SARS-CoV-2 (Fig. S1), MA104 cells, treated 1 h prior, MOI of 0.5, 24 hpi

With `C[C@H]1CCC/C=C/[C@@H]2C[C@H](O)C[C@H]2[C@H](O)/C=C/C(=O)O1` [Brefeldin A, brefeldin A] the EC50 (VSV-SARS-CoV-2 [1]; read-out: EC50 against VSV-SARS-CoV-2, MA104 cells, pre-treated 1 h, 24 h infection, MOI = 1, GFP signal) was < 2 µM.

`O=C(O)/C=C/c1ccc(O)c(O)c1` [Caffeic Acid, caffeic acid] showed an EC50 (VSV [2]; [6]) of 6.7 µM and an EC50 (VSV-SARS-CoV-2 [1]; [7]) of 4.66 µM.

For `C/C=C/[C@H]1O[C@@](O)([C@@H](C)[C@H](O)[C@H](C)[C@H]2OC(=O)/C(OC)=C/C(C)=C/[C@@H](C)[C@@H](O)[C@@H](CC)[C@@H](O)[C@H](C)C/C(C)=C/C=C/[C@@H]2OC)C[C@@H](O[C@H]2C[C@@H](O)[C@H](OC(N)=O)[C@@H](C)O2)[C@@H]1C` [Concanamycin A, concanamycin A], the EC50 (VSV [2]; [6]) was 5.55 µM and the EC50 (VSV-SARS-CoV-2 [1]; [7]) was < 0.01 µM.

For `CCOC(=O)[C@H]1O[C@@H]1C(=O)N[C@@H](CC(C)C)C(=O)NCCC(C)C` [E-64d], the CC50 (MA104 cells) is listed as > 300 µM and the “sensitivity of VSV to treatment (in words)” value (VSV [3]) is listed as “not be sensitive to E-64d treatment”.

`CCCCCCCCc1ccc(CCC(N)(CO)CO)cc1` [FTY720] showed an EC50 (VSV [2]; [6]) of 16.5 µM and an EC50 (VSV-SARS-CoV-2 [1]; [7]) of 5.17 µM.

For `CC(C)Cn1c(=O)n(C)c(=O)c2[nH]cnc21` [IBMX, 3-isobutyl-1-methylxanthine], the EC50 (VSV [2]; [6]) was < 2 µM and the EC50 (VSV-SARS-CoV-2 [1]; [7]) was < 2 µM.

In the case of `Clc1ccc(N/N=C(\c2ccccc2)c2ccccn2)nc1` [JIB-04], the percentage of inhibition (VSV-SARS-CoV-2 [4]; JIB-04 0.3 µM, NTZ 0 µM) is reported as 21%, the percentage of inhibition (VSV-SARS-CoV-2 [4]; JIB-04 1 µM, NTZ 0 µM) is reported as 50% and the percentage of inhibition (VSV-SARS-CoV-2 [4]; JIB-04 3 µM, NTZ 0 µM) is reported as 73%. The percentage of inhibition (VSV-SARS-CoV-2 [4]; JIB-04 10 µM, NTZ 0 µM) was 90%.

For `CC(=O)N1CCN(c2ccc(OCC3COC(Cn4ccnc4)(c4ccc(Cl)cc4Cl)O3)cc2)CC1` (stereo not shown) [Ketoconazole, ketoconazole], the EC50 (VSV [2]; [6]) was > 100 µM and the EC50 (VSV-SARS-CoV-2 [1]; [7]) was 30.1 µM.

For `CC(C)C[C@@H](C=O)NC(=O)[C@H](CC(C)C)NC(=O)[C@H](CC(C)C)NC(=O)OCc1ccccc1` [MG132] (Cbz-Leu-Leu-Leu-aldehyde), the EC50 (VSV-SARS-CoV-2 [1]; [7]) is given as 0.64 µM, the “selectivity in antiviral activities, VSV EC50 compared to VSV-SARS-CoV-2 EC50” value (“selectivity in antiviral activities” for short) (VSV-SARS-CoV-2 [1]; MA104 cells) is given as 100 fold and the “SARS-CoV replication (in words)” value (SARS-CoV) is given as “impair SARS-CoV replication”.

In the case of `CC(=O)Oc1ccccc1C(=O)Nc1ncc([N+](=O)[O-])s1` [Nitazoxanide, nitazoxanide], the “SI (selectivity index)” value (SARS-CoV-2-mNeonGreen; SARS-CoV-2-mNeonGreen, Vero E6 cells) is reported as 167, the EC50 (SARS-CoV-2-mNeonGreen; Severe acute respiratory syndrome coronavirus 2, Vero C1008, read-out: EC50 against SARS-CoV-2-mNeonGreen) is reported as 4.9 µM and the EC50 (VSV [2]; [6]) is reported as 16.3 µM. For the same molecule, the EC50 (VSV-SARS-CoV-2 [1]; [8]) was 5.82 µM, the EC50 (VSV-SARS-CoV-2 [1]; [7]) was 10.5 µM and the “SI (selectivity index)” value (VSV-SARS-CoV-2 [1]; VSV-SARS-CoV-2, MA104 cells) was 237. The percentage of inhibition (VSV-SARS-CoV-2 [4]; JIB-04 0 µM, NTZ 1 µM) was 16%, the percentage of inhibition (VSV-SARS-CoV-2 [4]; JIB-04 0 µM, NTZ 3 µM) was 24% and the percentage of inhibition (VSV-SARS-CoV-2 [4]; JIB-04 0 µM, NTZ 10 µM) was 42%. The percentage of inhibition (VSV-SARS-CoV-2 [4]; JIB-04 0 µM, NTZ 30 µM) was 92%.

`COc1ccc2cc1Oc1ccc(cc1)C[C@H]1c3cc(c(OC)cc3CCN1C)Oc1c(OC)c(OC)cc3c1[C@H](C2)N(C)CC3` [Tetrandrine, tetrandrine] showed an EC50 (VSV [2]; [6]) of 23.2 µM and an EC50 (VSV-SARS-CoV-2 [1]; [7]) of 1.23 µM.

With `C/C=C(/C)C(=O)O[C@H]1C(C)=C2[C@H]([C@@H]1OC(=O)CCCCCCC)[C@@](C)(OC(C)=O)C[C@H](OC(=O)CCC)[C@@]1(O)[C@H]2OC(=O)[C@@]1(C)O` [Thapsigargin, thapsigargin] the EC50 (VSV [2]; [6]) was 4.08 µM and the EC50 (VSV-SARS-CoV-2 [1]; [7]) was 0.22 µM.

In the case of `CC(C)[C@H](NC(=O)OCc1ccccc1)C(=O)N[C@H](C=O)Cc1ccccc1` [calpain inhibitor III] (Cbz-Val-Phe-aldehyde), the EC50 (VSV-SARS-CoV-2 [5]; Vero E6 cells, pre-treated 1 h, 24 h infection, read-out: EC50 against VSV-SARS-CoV-2 in Vero E6 cells) is reported as < 0.5 µM, the EC50 (VSV [2]; read-out: EC50 against VSV) is reported as 10.7 µM and the “selectivity in antiviral activities” value (VSV-SARS-CoV-2 [1]; MA104 cells) is reported as “more than 30 fold”. The EC50 (VSV-SARS-CoV-2 [1]; MA104 cells, pre-treated 1 h, 24 h infection, MOI = 1, GFP signal, read-out: EC50 against VSV-SARS-CoV-2) was 0.231 µM and the CC50 (MA104 cells) was > 300 µM.

For `CSCC[C@@H](C=O)NC(=O)[C@H](CC(C)C)NC(=O)[C@H](CC(C)C)NC(C)=O` [calpain inhibitor II] (Ac-Leu-Leu-Met-aldehyde), the “suppression of SARS-CoV-2 replication (in words)” value (SARS-CoV-2) is listed as “suppressed SARS-CoV-2 replication”.

For `CCCC[C@@H](C=O)NC(=O)[C@H](CC(C)C)NC(=O)OCc1ccccc1` [calpeptin], the CC50 (in vitro) was 300 µM, the EC50 (VSV-SARS-CoV-2 [5]; Vero C1008, read-out: EC50 against VSV-SARS-CoV-2 in Vero E6 cells, Vero E6 cells, pre-treated 1 h, 24 h infection) was < 0.5 µM and the EC50 (VSV [2]; [6]) was 7.43 µM. The EC50 (VSV-SARS-CoV-2 [1]; [7]) was 0.208 µM, the “selectivity in antiviral activities” value (VSV-SARS-CoV-2 [1]; MA104 cells) was “more than 30 fold” and the “suppression of SARS-CoV-2 replication (in words)” value (SARS-CoV-2) was “suppressed SARS-CoV-2 replication”.

For `O=C(/C=C/c1ccc(O)c(O)c1)O[C@H](Cc1ccc(O)c(O)c1)C(=O)O` [rosmarinic acid], the CC50 (in vitro) was > 300 µM, the EC50 (VSV-SARS-CoV-2 [1]; [8]) was > 100 µM and the “inhibition of VSV-SARS-CoV-2 infection (in words)” value (VSV-SARS-CoV-2 [1]; MA104 cells) was “did not inhibit VSV-SARS-CoV-2 infection”.
